{
  "source": "patent US20020119141A1",
  "about": "“Biochemical methods that eliminate corneal scars, opacification and haze” (priority 1999, published 2002)",
  "system": "eyes of rabbits",
  "excerpt": "Fifty-two (52) healthy rabbits of the New Zealand Cross variety (26 male, 26 female) weighing 1.5 kg to 2.5 kg were individually marked for identification and were housed individually in suspended cages. The animals received a commercially available pelleted rabbit feed on a daily basis, with tap water available ad libitum.\nThe animals were divided into thirteen groups of 4 animals each (2 males, 2 femals). Two animals in each group (1 male, 1 female) were selected for pretreatment fundus photography and fluorescein angiography.\nThe fundus photography was performed by restraining the animals and visualizing the optic nerve, retinal arcades and fundus with a KOWA® RC-3 Fundus Camera loaded with Kodak Gold 200 ASA film.\nThe fluorescein angiography involved a 1.5-ml injection of 2% sterile fluorescein solution via the marginal ear vein. Approximately 30 seconds post-injection the fluorescein was visualized upon localization of the optic nerve, retinal vessels and fundus.\nThe following day, each animal was anesthetized by intravenous administration of a combination of 34 mg/kg of ketamine hydrochloride and 5-mg/kg xylazine. The eyelids were retracted using a lid speculum, and the eyes were disinfected with an iodine-povidone wash.\nThe experimental treatments administered to each animal group were as follows:\nThe day following the injections (Day 1) the 26 animals, which were subjected to the fundus photography and fluorescein angiography, were observed using the same methods as for the pre-dose examination.\nThe eyes were then surgically removed and placed in a fixture solution of 2.5% glutaraldehyde with 0.1M phosphate buffered saline at pH 7.37. Alternatively, one randomly selected rabbit was euthanized by pentobarbital injection but then fixed by intracardiac injection of the gluteraldehyde solution into the left ventricle to determine the effect of the fixation procedure on the histology findings within the enucleated eyes.\nOn Day 7, the 13 female rabbits that had been previously photographed and angiography performed were subjected to same observations following the methods previously described.\nThe remaining 26 animals were euthanized as described above 7 days after dosing. The eyes were fixed in the same manner as those, which had been fixed on day 2. Also, one randomly selected rabbit was subjected to the same intracardiac gluteraldehyde fixation procedure described hereabove for the previously randomly selected animal.\nThe eyes of the animals treated in this example were examined grossly and microscopically for evidence of treatment-related toxicities.",
  "note": "Read-outs that look alike come from different tables or passages of the source.",
  "data": [
    {"substance": "Thimerosal [BSS + Thimerisol]", "values": [
      {"measurement": "treatment-related toxicity of the eyes (gross and microscopic examination)", "setting": "0.0075 mg thimerosal in BSS, day 2", "value": "free of toxicity"},
      {"measurement": "treatment-related toxicity of the eyes (gross and microscopic examination)", "setting": "0.0075 mg thimerosal in BSS, day 7, listed as BSS plus thimerosal", "value": "significant toxic effects"},
      {"measurement": "treatment-related toxicity of the eyes (gross and microscopic examination)", "setting": "0.0075 mg thimerosal in BSS, day 7, listed as BSS+thimerosal", "value": "breakdown of the blood retinal barrier"},
      {"measurement": "treatment-related toxicity of the eyes (gross and microscopic examination)", "setting": "0.025 mg thimerosal in BSS, day 2 and 7 post dose", "value": "severe treatment-related toxic effects"},
      {"measurement": "toxic effects in the eyes of rabbits (conclusion)", "setting": "intravitreal injection, at the dosages tested", "value": "do cause toxic effects"}
    ]}
  ]
}
